# Test results reported in article PMC10980815, “Cell surface patching via CXCR4-targeted nanothreads for cancer metastasis inhibition” (Nature Communications, 2024).
# Ends that are not written are not given here.
# What was measured:
# [1] = system: TGF-β; experiment: TGF-β ELISA (intra-tumoral, serum, pulmonary); type: in vivo, female BALB/c mice; set-up: Pulmonary TGF-β: unit not given beside the values; Intratumoral TGF-β / Systemic TGF-β: unit not given here; conditions: for Systemic TGF-β: serum
# Description: 4T1 cells (1 × 10^6 cells) were injected into the third mammary fat pad of female BALB/c mice (6–8-week). […] On day 28, blood samples, lungs and tumors were harvested.
# To explore the “seed-soil” crosstalk, the serum, intra-tumoral, and pulmonary concentration of LOX was determined using enzyme-linked immunosorbent assay kits (CSB-EL013041MO, CUSABIO, https://www.cusabio.com/) according to the manufacturer’s instructions. The serum, intra-tumoral, and pulmonary concentration of TGF-β was determined using mouse TGF-β ELISA Kit (Cat No.: HB1328-Mu). The formation of PMN was investigated through lung slices subjected to immunofluorescent staining of LOX, E-cadherin, and S100A8. For immunofluorescent staining of E-cadherin, Lung slices were stained with CoraLite® Plus 647 anti-mouse CD324 (E-cadherin, 1:300 dilution). For immunofluorescent staining of LOX and S100A8, Lung slices were separately stained with anti-LOX recombinant rabbit monoclonal antibody (1:500 dilution) or S100-A8 / MRP8 rabbit pAb (1:500 dilution), followed by staining with goat anti-rabbit IgG H&L Alexa Fluor® 647 (1:1000 dilution), respectively. Single-cell suspensions of lungs were analyzed using flow cytometry to assess BMDC (CD11b^+Gr1^+) with PE anti-mouse/human CD11b antibody (1:300 dilution) and FITC anti-mouse Ly-6G/Ly-6C (Gr-1) antibody (1:300 dilution). Chemokine concentrations in lungs were determined using a mouse CXCL12 ELISA kit.
# [2] = system: orthotopic 4T1 breast tumors; experiment: Tumor-infiltrating CD8+ T lymphocytes, Tregs and MDSCs (flow cytometry); type: in vivo, female BALB/c mice; conditions: for CD3+CD8+ T cells (%) in tumor / CD11b+Gr1+ MDSCs (%) in tumor / Tregs (%) in CD4+ T cells: Supplementary Fig. 16a; for intratumoral Tregs and MDSCs: three i.v. cycles days 7, 14, 21, day 28, no PDT
# Description: 4T1 cells (1 × 10^6 cells) were injected into the third mammary fat pad of female BALB/c mice (6–8-week). When tumor volumes reached nearly […] on day 7 after tumor inoculation, mice were randomly divided into 8 groups (n = 8 per group). For four groups without laser irradiation (−), mice were intravenously injected with the following samples: (1) saline on day 7, 14, 21, and 28, (2) P-PS on day 7, 14, 21, and 28, (3) P-BS-PS on day 7, 14, 21, and 28, or (4) P-BS-CM1 on day 7, 14, 21, and 28, followed by P-PS-CM2 on day 8, 15, 22, and 29 (5 mg/kg BS equivalence, CM1:CM2 1:1 mol%, 2.5 mg/kg PS equivalence), respectively. For four groups with laser irradiation (+), mice were treated with the same regimens and irradiated at 650 nm laser (580 mW/cm^2, 5 min) on day 9, 16, 23 and 30. Tumor volumes and mice survivals were recorded every other day. For the investigation of immune response and lung metastasis, 4T1 tumor-bearing female BALB/c mice (6–8-week, tumor volume~100 mm^3) were randomly divided into 8 groups (n = 5 per group) and given three rounds of above treatments. On day 28, lungs and tumors were harvested. lungs were fixed with Bouin’s solution. The pulmonary metastatic nodules were counted and analyzed by hematoxylin-eosin staining. Single-cell suspensions of tumor tissues were stained with anti-CD45-PerCP/Cy5.5 (1:300 dilution) and anti-calreticulin recombinant rabbit monoclonal antibody (1:500 dilution) at 4 °C for 1 h, and then stained with goat anti-rabbit IgG H&L Alexa Fluor® 647 (1:1000 dilution, 4 °C, 45 min), followed by flow cytometry analysis. ATP and HMGB1 concentrations in the supernatant of cell suspension were measured using a luciferase-based ATP assay kit and a mouse HMGB1 ELISA kit, respectively. Single-cell suspensions of tumors were stained with FITC anti-mouse CD3 antibody (1:300 dilution), PerCP/Cyanine5.5 anti-mouse CD4 antibody (1:300 dilution), anti-CD8α-APC (1:300 dilution), and anti-Foxp3-PE (1:300 dilution) for flow cytometry analysis of T cell subtypes (CD8^+ T cells, CD4^+ effector T cells, and Foxp3^+ regulatory T cells), and stained with PE anti-mouse/human CD11b antibody (1:300 dilution) and FITC anti-mouse Ly-6G/Ly-6C (Gr-1) antibody (1:300 dilution) for flow cytometry analysis of MDSCs (CD11b^+Gr1^+). Cytotoxic T cells in tumor tissues were investigated with immunofluorescent staining of IFN-γ and flow cytometry analysis using anti-IFN-γ-PE (1:300 dilution). For CD8-depletion assay, 4T1 tumor-bearing female BALB/c mice (6–8-week, tumor volume~100 mm^3) were randomly divided into 3 groups (n = 8 per group). Mice were intravenously given four doses of P-BS-CM1 on day 7, 14, 21 and 28, combined with P-PS-CM2 on day 8, 15, 22 and 29 (5 mg/kg BS equivalence, CM1:CM2 1:1 mol%, 2.5 mg/kg PS equivalence) in the presence or absence of InvivoMab anti-mouse CD8α (100 μg/mice). Mice were irradiated at 650 nm laser (580 mW/cm^2, 5 min) on day 9, 16, 23 and 30. Tumor volumes and mice survivals were recorded every other day.
substance,measurement,setting,value
LGASWHRPDKCCLGYQKRPLPA [Free BS],Intratumoral TGF-β,[1]; replicate 1,20.98
same,Pulmonary TGF-β,[1]; replicate 1,9.12
same,Intratumoral TGF-β,[1]; replicate 2,26.43
same,Pulmonary TGF-β,[1]; replicate 2,10.3
same,Intratumoral TGF-β,[1]; replicate 3,26.11
same,Pulmonary TGF-β,[1]; replicate 3,11.1
same,Intratumoral TGF-β,[1]; replicate 4,22.3
same,Pulmonary TGF-β,[1]; replicate 4,10.7
same,Intratumoral TGF-β,[1]; replicate 5,20.45
same,Pulmonary TGF-β,[1]; replicate 5,8.9
same,Systemic TGF-β,[1]; replicate 1,321.2
same,Systemic TGF-β,[1]; replicate 2,324.5
same,Systemic TGF-β,[1]; replicate 3,372.1
same,Systemic TGF-β,[1]; replicate 4,355.2
same,Systemic TGF-β,[1]; replicate 5,352
same,CD3+CD8+ T cells (%) in tumor,[2]; replicate 1 of 5,0.123%
same,CD11b+Gr1+ MDSCs (%) in tumor,[2]; replicate 1 of 5,19.37%
same,Tregs (%) in CD4+ T cells,[2]; replicate 1 of 5,22.46%
same,CD3+CD8+ T cells (%) in tumor,[2]; replicate 2 of 5,0.1188%
same,CD11b+Gr1+ MDSCs (%) in tumor,[2]; replicate 2 of 5,18.11%
same,Tregs (%) in CD4+ T cells,[2]; replicate 2 of 5,19.38%
same,CD3+CD8+ T cells (%) in tumor,[2]; replicate 3 of 5,0.1444%
same,CD11b+Gr1+ MDSCs (%) in tumor,[2]; replicate 3 of 5,26.3%
same,Tregs (%) in CD4+ T cells,[2]; replicate 3 of 5,19.75%
same,CD3+CD8+ T cells (%) in tumor,[2]; replicate 4 of 5,0.1085%
same,CD11b+Gr1+ MDSCs (%) in tumor,[2]; replicate 4 of 5,21.21%
same,Tregs (%) in CD4+ T cells,[2]; replicate 4 of 5,21.91%
same,CD3+CD8+ T cells (%) in tumor,[2]; replicate 5 of 5,0.1016%
same,CD11b+Gr1+ MDSCs (%) in tumor,[2]; replicate 5 of 5,17.61%
same,Tregs (%) in CD4+ T cells,[2]; replicate 5 of 5,22.71%
same,intratumoral Tregs and MDSCs,[2],not affected
"P-BS: HPMA copolymer-BS conjugate, ~6 BS grafts per polymer (LGASWHRPDKCCLGYQKRPLPA; not fully specified (residues 11, 12); also: about 6 peptides grafted on HPMA copolymer via cysteine-maleimide thioether links)",Intratumoral TGF-β,[1]; replicate 1,15.43
same,Pulmonary TGF-β,[1]; replicate 1,5.4
same,Intratumoral TGF-β,[1]; replicate 2,15.3
same,Pulmonary TGF-β,[1]; replicate 2,5.1
same,Intratumoral TGF-β,[1]; replicate 3,19.3
same,Pulmonary TGF-β,[1]; replicate 3,7.1
same,Intratumoral TGF-β,[1]; replicate 4,17.3
same,Pulmonary TGF-β,[1]; replicate 4,6.3
same,Intratumoral TGF-β,[1]; replicate 5,15.33
same,Pulmonary TGF-β,[1]; replicate 5,4.2
same,Systemic TGF-β,[1]; replicate 1,276.4
same,Systemic TGF-β,[1]; replicate 2,245.1
same,Systemic TGF-β,[1]; replicate 3,225.1
same,Systemic TGF-β,[1]; replicate 4,267.3
same,Systemic TGF-β,[1]; replicate 5,241.2
same,CD3+CD8+ T cells (%) in tumor,[2]; replicate 1 of 5,0.1153%
same,CD11b+Gr1+ MDSCs (%) in tumor,[2]; replicate 1 of 5,12.4%
same,Tregs (%) in CD4+ T cells,[2]; replicate 1 of 5,15.81%
same,CD3+CD8+ T cells (%) in tumor,[2]; replicate 2 of 5,0.2531%
same,CD11b+Gr1+ MDSCs (%) in tumor,[2]; replicate 2 of 5,14.84%
same,Tregs (%) in CD4+ T cells,[2]; replicate 2 of 5,15.31%
same,CD3+CD8+ T cells (%) in tumor,[2]; replicate 3 of 5,0.2407%
same,CD11b+Gr1+ MDSCs (%) in tumor,[2]; replicate 3 of 5,14.8%
same,Tregs (%) in CD4+ T cells,[2]; replicate 3 of 5,13.12%
same,CD3+CD8+ T cells (%) in tumor,[2]; replicate 4 of 5,0.1577%
same,CD11b+Gr1+ MDSCs (%) in tumor,[2]; replicate 4 of 5,14.66%
same,Tregs (%) in CD4+ T cells,[2]; replicate 4 of 5,11.55%
same,CD3+CD8+ T cells (%) in tumor,[2]; replicate 5 of 5,0.2259%
same,CD11b+Gr1+ MDSCs (%) in tumor,[2]; replicate 5 of 5,15.36%
same,Tregs (%) in CD4+ T cells,[2]; replicate 5 of 5,16.67%
same,intratumoral Tregs and MDSCs,[2],moderately decreased
